Source: patent publication EP1222163B1, “2'-SUBSTITUTED 1,1'-BIPHENYL-2-CARBONAMIDES, METHOD FOR THE PRODUCTION THEREOF, USE THEREOF AS A MEDICAMENT AND PHARMACEUTICAL PREPARATIONS CONTAINING SAID COMPOUNDS” (Sanofi-Aventis Deutschland GmbH, priority 1999, dated 2001)

Molecular target: T1, Kv1.5-Kanäle aus dem Menschen (Homo sapiens, UniProt P22460)
T1 construct: expressed in transfected cells; host or cells: Xenopus laevis oocytes injected with in vitro synthesised Kv1.5-coding RNA
Assay: Kv1.5 currents in Xenopus oocytes, two-microelectrode voltage clamp
Type: cell-based
Description: Kv1.5-Kanäle aus dem Menschen wurden in Xenopus Oozyten expremiert. Hierfür wurden zuerst Oozyten aus Xenopus laevis isoliert und defollikuliert. Anschließend wurde in diese Oozyten in vitro synthetisierte Kv1.5 kodierende RNA injiziert. Nach 1 - 7 Tagen Kv1.5-Proteinexpression wurden an den Oozyten mit der Zwei-Mikroelektroden Voltage-Clamp Technik Kv1.5-Ströme gemessen. Die Kv1.5-Kanäle wurden hierbei in der Regel mit 500 ms dauernden Spannungssprüngen auf 0 mV und 40 mV aktiviert. Das Bad wurde mit einer Lösung der nachfolgenden Zusammensetzung durchspült: NaCl 96 mM, KCl 2 mM, CaCl2 1,8 mM, MgCl2 1 mM, HEPES 5 mM (titriert mit NaOH auf pH 7,4). Diese Experimente wurden bei Raumtemperatur durchgeführt. Zur Datenerhebung und Analyse wurden eingesetzt: Geneclamp Verstärker (Axon Instruments, Foster City, USA) und MacLab D/A-Umwandler und Software (ADInstruments, Castle Hill, Australia). Die erfindungsgemäßen Substanzen wurden getestet, indem sie in unterschiedlichen Konzentrationen der Badlösung zugefügt wurden. Die Effekte der Substanzen wurden als prozentuale Inhibition des Kv1.5-Kontrollstromes berechnet, der erhalten wurde, wenn der Lösung keine Substanz zugesetzt wurde. Die Daten wurden anschließend mit der Hill-Gleichung extrapoliert, um die Hemmkonzentrationen IC50 für die jeweiligen Substanzen zu bestimmen.

T1 sequence (P22460 whole entry): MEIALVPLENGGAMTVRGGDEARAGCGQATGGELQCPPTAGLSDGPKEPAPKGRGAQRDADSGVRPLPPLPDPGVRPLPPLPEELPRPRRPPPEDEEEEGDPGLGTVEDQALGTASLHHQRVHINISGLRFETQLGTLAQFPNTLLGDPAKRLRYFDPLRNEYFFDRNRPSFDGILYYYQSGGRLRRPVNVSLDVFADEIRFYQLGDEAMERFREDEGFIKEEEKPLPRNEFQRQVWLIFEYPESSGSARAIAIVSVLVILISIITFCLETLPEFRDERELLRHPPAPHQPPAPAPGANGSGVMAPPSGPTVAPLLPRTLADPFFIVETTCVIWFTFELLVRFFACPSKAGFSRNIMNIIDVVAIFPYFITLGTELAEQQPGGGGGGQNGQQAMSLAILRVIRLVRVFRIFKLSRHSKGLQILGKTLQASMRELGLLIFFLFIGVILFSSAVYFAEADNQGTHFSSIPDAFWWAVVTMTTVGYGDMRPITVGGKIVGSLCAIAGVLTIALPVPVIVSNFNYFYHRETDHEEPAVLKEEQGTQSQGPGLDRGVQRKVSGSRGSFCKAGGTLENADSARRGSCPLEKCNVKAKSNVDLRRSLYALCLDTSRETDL

`NC(=O)[C@H](Cc1ccccc1)NC(=O)c1ccccc1-c1ccccc1CNS(=O)(=O)c1cccc2cccnc12` [Beispiel 12 l] showed an IC50 of 10.3 µM.
